Marks after values point to notes of the source that are not given here.

The assay has as its system Multispecies mature biofilm from clinical isolates (Actinomyces radicidentis, Enterococcus faecalis, Propionibacterium acnes, Streptococcus epidermidis …). Put plainly: Viable post-experimental counts of multi-species biofilms on root halves after irrigation. It counts as cell-based. The note with it: 1% NaOCl solution irrigation (5 ml) of root canals of extracted teeth with two-week biofilm; paper point sampling; FAA plates incubated anaerobically 7 days; triplicates. From the text:
Twenty freshly extracted, single rooted teeth were obtained under ethical Approval (South East London ethical approval 10/H0804/056). Each tooth had the crown removed to obtain 15 mm long specimens, using a 0.3 mm thickness diamond wafering blade (Extec, Enfield, Conn., USA) on a 11-1180 Isomet low speed saw (Buehler, Düsseldorf, Germany). Root canal patency was confirmed using an ISO 10 K-file. Canals were instrumented with Gates Glidden (nr. 2-4) for coronal flaring followed by ProTaper F3 instrumentation and apical instrumentation with an ISO 45 K-file 1 mm short of the working length. Irrigation throughout the instrumentation was undertaken with sterile saline. […]
Multispecies mature biofilm from clinical isolates, identified through sequencing (Actinomyces radicidentis, Enterococcus faecalis, Propionibacterium acnes, Streptococcus epidermidis, Streptococcus oxalis) were grown in 24 multiwell plates for two weeks on root halves using a modification of the established 5-day biofilm protocol (Gmür & Guggenheim 1983). […] The turbidity was adjusted with fresh mFUM to OD at 540 nm (Labsystems iEMS Reader MF) to 0.5. […]
After each root had been subjected to its respective irrigation protocol and imaging steps, the root halves were aseptically placed in a 9 cm petri dish (SLS, East Riding of Yorkshire, UK). […] After the incubation, the numbers of colonies on FAA plates were counted. […]

Consider `OCl` [Sodium hypochlorite], for which the “Microbial counts expressed as log10 (Mean ± SE) after anaerobic growth” value is 0.51* Log10.
